Data published in PubChem BioAssay (NCI).
Several values for one entry are separate records, joined by “and”; a condition that tells them apart may be missing. Identical values can stand only once.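 Grown in 96-well plates, cells were treated for 48 hours with each compound at five concentrations. Insufficient inhibition: endpoint recorded as highest concentration tested. GI50 = concentration required for 50% inhibition of growth. TGI denotes the concentration required for complete inhibition of growth.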

Columns and labels:
Test in all cases: NCI-60 cell line screen, 48 h
LOX IMVI melanoma = test system: LOX IMVI melanoma
NCI-H522 lung = test system: NCI-H522 lung
EKVX NSCLC = test system: EKVX NSCLC
SK-MEL-2 melanoma = test system: SK-MEL-2 melanoma
SR leukemia = test system: SR leukemia
NCI-H460 lung = test system: NCI-H460 lung
MDA-MB-231 breast = test system: MDA-MB-231 breast
SF-268 CNS = test system: SF-268 CNS
DU-145 prostate = test system: DU-145 prostate
A498 renal = test system: A498 renal

| Structure (SMILES) | GI50 (LOX IMVI melanoma) | TGI (LOX IMVI melanoma) | GI50 (NCI-H522 lung) | TGI (NCI-H522 lung) | GI50 (EKVX NSCLC) | TGI (EKVX NSCLC) | GI50 (SK-MEL-2 melanoma) | TGI (SK-MEL-2 melanoma) | GI50 (SR leukemia) | TGI (SR leukemia) | GI50 (NCI-H460 lung) | TGI (NCI-H460 lung) | GI50 (MDA-MB-231 breast) | TGI (MDA-MB-231 breast) | GI50 (SF-268 CNS) | TGI (SF-268 CNS) | GI50 (DU-145 prostate) | TGI (DU-145 prostate) | GI50 (A498 renal) | TGI (A498 renal) |
| --- | --- | --- | --- | --- | --- | --- | --- | --- | --- | --- | --- | --- | --- | --- | --- | --- | --- | --- | --- | --- |
| C=CC(=O)Nc1cc(Nc2ncc(C(=O)OC(C)C)c(-c3cn(C)c4ccccc34)n2)c(OC)cc1N(C)CCN(C)C | 1.76 µM | 3.53 µM | 20 nM | 5.74 µM | 18.1 nM | 13.6 µM | 4.3 µM | 11 µM | 3.04 µM | > 33.7 µM | 6.57 µM | 14.8 µM | 2.66 µM | 8.26 µM | 6.88 µM | 24.1 µM | 1.19 µM | 17.6 µM | 483 nM | 7.63 µM |
| Cc1ccc(NC(=O)Nc2ccc(-c3cccnc3)cc2N2CCC(CO)CC2)cc1 | 3.6 µM | > 100 µM | 1660 nM | 5.12 µM | 3420 nM | > 100 µM | 2.24 µM | 8.38 µM | 2.83 µM | > 100 µM | 3.19 µM | > 100 µM | 2.42 µM | > 100 µM | 3.05 µM | > 100 µM | 3.78 µM | > 100 µM |  |  |
| O=C(Nc1ccc(F)cc1)Nc1ccc(Cl)c([N+](=O)[O-])c1 | 3.51 µM | 12.2 µM | 2440 nM | 10.8 µM | 2790 nM | 11 µM | 2.32 µM | 5.83 µM | 3.41 µM | > 100 µM | 2.72 µM | 11.5 µM | 2.54 µM | 6.46 µM | 4.42 µM | 17.3 µM | 4.44 µM | 21.2 µM | 1800 nM | 5.78 µM |
| Cc1ccc2c(C)c3c(ccc4ccccc43)c[n+]2c1 | 17.3 µM | 53.6 µM | 15500 nM | 38.8 µM | 775 nM | > 100 µM | 15.4 µM | 33.6 µM | 3.75 µM | 22.9 µM | 5.1 µM | 25.1 µM | 13.5 µM | 46.2 µM | 2.87 µM | 15.9 µM | 14.7 µM | 40.6 µM | 5850 nM | > 100 µM |
| Nc1c(C(=O)c2cccc(CCS(N)(=O)=O)c2)cnn1-c1ccc(F)cc1 | > 25 µM | > 25 µM | > 25000 nM | > 25 µM |  |  | > 25 µM | > 25 µM | > 25 µM | > 25 µM | > 25 µM | > 25 µM | > 25 µM | > 25 µM | > 25 µM | > 25 µM | > 25 µM | > 25 µM | > 25000 nM | > 25 µM |
| NC(N)=NS(=O)(=O)c1ccc(Nc2c3ccccc3nc3c(C(=O)NCCO)cccc23)cc1 | 28 µM |  | 16600 nM |  | 25700 nM |  | 26.6 µM |  | 30.7 µM |  | 9.16 µM |  | 24.6 µM |  | 16.3 µM |  | 15.3 µM |  | 13600 nM |  |
| CO/C(=N\N=C\c1ccc(C(F)(F)F)cc1)c1ccncc1 |  | > 10 µM |  | > 10 µM |  | > 10 µM |  | > 10 µM |  | > 10 µM |  | > 10 µM |  | > 10 µM |  | > 10 µM |  | > 10 µM |  |  |
| O=C(CCNC12CC3CC(CC(C3)C1)C2)c1ccccc1 |  |  |  | 32 µM |  |  |  | 30 µM |  | 37.1 µM |  | 69.6 µM |  | 69.8 µM |  | > 100 µM |  | > 100 µM |  | 62.9 µM |
| COc1cccc(C2c3cc4c(cc3OC(C)(N3CCCC3)C2C)OCO4)c1O (stereo not drawn) |  | 19.2 µM |  | 6.01 µM |  | > 91.6 µM |  | > 23.5 µM |  | 19.3 µM |  | 37 µM |  | 18.4 µM |  | > 72.5 µM |  | 15.3 µM |  | 40.5 µM |
| C[C@@H](Oc1cc(-n2cnc3ccc(CN4CCN(C)CC4)cc32)sc1C(N)=O)c1ccccc1C(F)(F)F | < 0.018 µM and 0.0231 µM | 5.5 µM and > 10 µM | < 10 nM and 5.31 nM | 0.0369 µM |  | 21.6 µM and > 10 µM |  | > 10 µM | < 0.01 µM and 0.00514 µM | 1.75 µM and 1.44 µM | < 0.0157 µM and 0.0224 µM | 12.5 µM and > 10 µM |  | 2.65 µM and > 2.79 µM | 0.0293 µM and 0.0667 µM | 16.3 µM and > 10 µM | < 0.0134 µM and 0.00975 µM | 0.652 µM and 0.188 µM | 61.5 nM and 34.1 nM | 0.982 µM and 0.187 µM |
| COc1cnc2c(c1)C(=O)c1c-2n(CCCN2CCOCC2)c(=O)c2cc(F)ccc12 | 0.161 µM | 0.387 µM |  |  | 482 nM | > 100 µM | 1.67 µM | 5.18 µM | 0.0829 µM | 1.27 µM | 0.0573 µM | 0.487 µM | 1.6 µM | > 100 µM | 0.265 µM | > 100 µM | 0.341 µM | > 100 µM | 172 nM | 0.911 µM |
| Cc1ccc(CN2CCC(C(=O)Nc3ccc(-c4cc5ccccc5[nH]4)cc3)CC2)o1 | > 100 µM | > 100 µM | > 100000 nM | > 100 µM | > 100000 nM | > 100 µM | > 100 µM | > 100 µM | 4.3 µM | > 100 µM | > 100 µM | > 100 µM | > 100 µM | > 100 µM | > 100 µM | > 100 µM | > 100 µM | > 100 µM | 4040 nM | > 100 µM |
| O=[N+]([O-])c1ccc2c(c1)/C(=N/N=C1c3ccccc3Cc3ccccc31)c1cc([N+](=O)[O-])cc([N+](=O)[O-])c1-2 |  | 4.6 µM |  | 3.25 µM |  | 12.3 µM |  | 24.8 µM |  | > 25.7 µM |  | 14.1 µM |  | 6.42 µM |  | 5.81 µM |  | 13.7 µM |  | 18.2 µM |
| Nc1ccccc1C#C/C=C\C#Cc1ccccc1OC(F)(F)F | 7.85 µM | 27 µM | 3470 nM | 14 µM | 9160 nM | 58.7 µM | 6.38 µM | 29 µM | 1.63 µM | 13.9 µM | 3.78 µM | 17.3 µM | 5.34 µM | 24.7 µM | 6.44 µM | 32 µM | 4.81 µM | 29.9 µM | 3930 nM | 14 µM |
